Data set [1] in a line: Concentration of acyclovir in plasma after topical application. The conditions noted are these: drug incorporated within the poloxamer matrix; infected vs uninfected mice; 24 h. It is filed as in vivo.
A short description of data set [2]: In vivo skin penetration of antivirals (distribution in skin tissues). The arrangement: species or system mice.
The subject of data set [3] is HSV-1 (strain F). Kind of data set: Treatment of HSV-1 cutaneous lesions in mice with topical formulations. It is filed as in vivo, hairless mice (SKH1). The conditions noted are these: treatment started 24 h after infection, 3 times daily for 4 days. How it is done: For the purpose of testing the efficacy of our gel formulations in a murine model of cutaneous HSV-1 infection, the solutions were prepared within a phosphate buffer (0.2 M, pH 6) to be compatible with the pH of the skin.
The efficacy of our different topical formulations has been evaluated in a murine model of cutaneous HSV-1 infection. In brief, female hairless mice (SKH1; Charles River Breeding Laboratories Inc., St-Constant, QC, Canada), 5–7 weeks old were anesthetized by intraperitoneal injection of a mixture containing 70 mg/kg ketamine hydrochloride and 11.5 mg/kg xylazine. The virus was inoculated on the lateral side of the body in the left lumbar skin area. The skin was scratched six times with a 27 gauge needle held vertically in a crossed-hatched pattern. Fifty μl of viral suspension (HSV-1 strain F, 1.5×10^6 plaque forming units (PFU)/ml) was rubbed for 10 to 15 sec on the scarified skin area with a cotton tipped applicator saturated with culture medium [minimum essential medium (MEM) supplemented with 100 U/ml of penicillin-streptomycin, 2 mM L-glutamine and 2% fetal bovine serum (MEM-E +2% FBS)]. The scarified area was protected with a corn cushion which was maintained on the mice body with surgical tape. […]
Different treatment regimens were evaluated in this study. […] The efficacy of the different formulations was evaluated using lesion scores and survival.

Data set [4] deals with HSV-1 (strain F). The data set is described as follows: In vitro susceptibility of HSV-1 to combination of foscarnet and SLS in Vero cells (PFU). To be noted: combinations of different concentrations in overlay, 2 days, FIG. 22. It counts as cell-based, Herpes simplex virus type-1. The protocol: The effect of SLS on the efficacy of foscamet against HSV-1 (strain F) was investigated in Vero cells. In brief, cells were seeded in 24 well-plates (Costar, Montreal, QC, Canada) and were incubated with HSV-1 strain F (approximately 100 PFU/ml) for 2 h at 37° C. to allow virus adsorption. Afterwards, virus was removed and cells overlaid with 0.5 ml of 0.6% agarose Seaplaque (Marine Colloids, Rockland, Mass.) containing different concentrations of foscarnet, SLS or combination of both compounds. The plates were incubated for 2 days at 37° C. Cells were then fixed with 10% formaldehyde in PBS for 20 min, washed with deionized water and stained with 0.05% methylene blue. Virus susceptibility was evaluated via the determination of PFU.

Another data set has as its system Vero cells. Kind of data set: Viability of Vero cells exposed to SLS or DS (MTS test). The conditions noted are these: Vero cells exposed 1 h at 37° C. to concentrations as in FIG. 1 and Table 1; data not shown. (In general: Tetrazolium dyes change colour on reduction, which living cells bring about.)
Data set [5] concerns HSV-1 (strain F). Kind of data set: Murine cutaneous infection model, HSV-1 pretreated with SLS or DS. It counts as in vivo, hairless mice (SKH1). The protocol: The effect of pretreating HSV-1 (strain F) with SLS on viral infectivity has also been evaluated in a murine cutaneous infection model. Female hairless mice (SKH1; Charles River Breeding Laboratories Inc., St-Constant, QC, Canada), 5–6 weeks old were used throughout this study. […] Mice were anesthetized by intraperitoneal injection of a mixture containing 70 mg/kg ketamine hydrochloride (Rogarsetic* injection USP; Rogar/STB Inc. Montreal, QC, Canada) and 11.5 mg/kg xylazine (Rompun®; Miles Canada Inc., Etobicoke, ON, Canada). The virus was inoculated on the lateral side of the body in the left lumbar skin area. The skin was scratched six times in a crossed-hatched pattern with a 27-gauge needle held vertically. Viral suspension (50 μl) was deposited onto the scarified area and rubbed for 10 to 15 see with a cotton tipped applicator saturated with EMEM+2% FBS or SLS or DS solutions. The scarified area was protected with a corn cushion which was maintained on the mice body with surgical tape. The porous inner wall of the aperture of the corn cushion was impermeabilized with tissue adhesive prior to use to prevent absorption of the drug. The aperture of the corn cushion was also closed with surgical tape. Mice were then returned to their cages and observed twice daily.
In infected untreated mice, no pathological signs of cutaneous infection were visible during the first four days following infection and only the scarified area remained appearent. On day 5, herpetic skin lesions began to appear in some mice in the form of small vesicles distant from the inoculation site. On day 6, almost all untreated mice developed herpetic skin lesions in the form of a 4–5 mm wide band extending from the spine to the ventral midline of the infected dermatome similar to zoster-like infections. Maximal mean lesion score was observed on day 8. Mean lesion score decreased thereafter from day 11 to day 15 because of spontaneous regression of cutaneous lesions in some mice. […] Of prime importance, all mice infected with the virus pretreated with 100 μM SLS survived the infection (data not shown).

Data set [6] has as its system HSV-1 (strain F). The data set is described as follows: Efficacy of SLS or DS added in overlay after infection against HSV-1 (strain F) in Vero cells (PFU). It is filed as cell-based, Herpes simplex virus type-1. The conditions noted are these: cells infected 2 h, compound in overlay for 2 days, FIG. 2. How it is done: In brief, cells were infected with the virus for 2 h at 37° C. Afterwards, supernatant was removed and cells were overlaid with 0.5 ml of EMEM +2% FBS containing 0.6% agarose Seaplaque and SLS or DS at the desired concentration. Plates were then incubated for 2 days at 37° C. in a 5% CO2 atmosphere. Cells were fixed with 10% formaldehyde in PBS for 20 min, washed with deionized water and stained with 0.05% methylene blue. Viral infectivity was evaluated following the determination of PFU.

In data set [7] the test system is HSV-1 (strain F). The data set is described as follows: Infectivity of HSV-1 (strain F) to Vero cells after treatment with SLS or DS (plaque forming units). It counts as cell-based, Herpes simplex virus type-1. To be noted: independent of whether the virus was pretreated, FIG. 1, read-out: concentration giving a loss of 50% of the viral infectivity. How it is done: The effect of pretreating different strains of herpes viruses with SLS or DS on their viral infectivities to susceptible cells has been evaluated. In brief, cells were seeded in 24 well-plates (Costar, Montreal, QC, Canada). Prior to infection, the virus was either suspended in culture medium or phosphate buffered saline (PBS), or incubated with different concentrations of SLS in PBS for 1 h at 37° C. At confluency, cells were incubated with viral suspensions by centrifuging the plates (750× g for 45 min at 20° C.) to allow virus adsorption. Virus was removed and cell sheets were then overlaid with 0.5 ml of 0.6% agarose Seaplaque (Marine Colloids, Rockland, Md.) prepared in appropriate culture medium. The plates were incubated for 2 days at 37° C. Cells were then fixed with 10% formaldehyde in PBS for 20 min, washed with deionized water and stained with 0.05% methylene blue. Viral infectivity was evaluated via the determination of Plaque Forming Units (PFU).
HSV-1 (strain F) infectivity was reduced to 21% when viral particles were pretreated with 25 μM SLS. The infectivities of all HSV-2 strains were between 50 to 70% following preincubation with 25 μM SLS. A complete loss of the infectivity of all strains tested were obtained following pretreatment of the viruses with 50 μM SLS.
When SLS was immediately added to Vero cells following their infection, the loss of viral infectivity was less dramatic compared to that obtained for virus pretreated for 1 h at 37° C. with the same SLS concentrations. […] Similarly, pretreatment of the HSV-2 (strain 333) with SLS also influenced the infectivity of this strain (data not shown). On the other hand, DS reduces the infectivity of the virus independent of whether the virus was pretreated with DS.

The values below come from patent US7192607B2, “Formulations for the prevention or the treatment of diseases affecting mucosae or skin, or for pregnancy prevention, and an applicator for the delivery of topical formulations into mucosal cavities” (Infectio Recherche Inc, priority 2002, dated 2007).

Take `Nc1nc2c(ncn2COCCO)c(=O)[nH]1` [acyclovir]: in data set [1], the “increase of concentration in plasma by infection” value amounted to 4 fold. In data set [2] (infected vs uninfected mice, 24 h), the “effect of infection on amount in the epidermis” value is “did not significantly increase”. Further, the “concentration in the epidermis and dermis compared with that of foscarnet” value in data set [2] (uninfected and infected mice, irrespective of the carrier, 24 h) is “higher”.
`O=C(O)P(=O)(O)O` [foscarnet]: the “mice that survived the infection” value in the data set with HSV-1 (strain F) [3] (0.5% foscarnet in solution) is reported as “Half”. Moreover, in the data set with HSV-1 (strain F) [3] (solution of 0.5% foscarnet), the mean lesion score entry is reported as “large reduction”. For the same compound, in the data set with HSV-1 (strain F) [4], the “efficacy of foscarnet against HSV-1 (strain F) in the presence of SLS” value was “enhanced”. In addition, in data set [2] (infected mice, drug incorporated within the poloxamer vs phosphate buffer, 24 h), the “concentration in the epidermis and dermis” value is “significantly higher”. Besides, the “amounts found in the underlying epidermis and dermis” value in data set [2] (uninfected mice, irrespective of the carrier, 24 h after topical application) is listed as “No or negligible amounts”.
On to dextran sulfate [DS], for which the “cytotoxicity (viability, MTS test)” value with Vero cells is given as “No signs of cytotoxicity”. Moreover, the mean lesion score result with HSV-1 (strain F) [5] (virus pretreated with 0.25 nM DS) is listed as “partial reduction”. The “protection against the development of herpetic lesions” value with HSV-1 (strain F) [5] (virus pretreated with either 1 or 10 nM DS) is on record as “better protection”. Also, the “concentration with complete efficacy against viral replication” value with HSV-1 (strain F) [6] came to 20 µM. In the data set with HSV-1 (strain F) [7], the IC50 was roughly 1 nM.
